Active and inactive are the calls of the source. The rule behind the calls is not given here.
Legend:
MC-38 [1] = experiment: In vivo antitumor activity against mouse MC-38 cells inoculated in C57BL/6 mouse assessed as increase in IFN-gamma level in serum at 60 mg/kg, po Q3D co-administered with anti-PD1 measured for 15 to 20 days; type: functional, organism-based; settings: time 15-20 day
[2] = Half life in mouse at 10 mg/kg, po by LC-MS/MS analysis; type: ADME, organism-based; settings: in vivo
[3] = Metabolic stability in mouse liver microsomes assessed as half life at 10 uM measured up to 60 mins by LC-MS/MS analysis; type: ADME, Microsome
[4] = Chemical stability of the compound in MeOH/H2O solvent assessed as half life by LC-MS/MS analysis; type: physicochemical
[5] = target: T1, Stimulator of interferon genes protein (Homo sapiens, UniProt Q86WV6); experiment: Agonist activity at human STING HAQ variant in human THP1-Blue ISG cells assessed as fold change in stimulation activity measured after 24 hrs incubation by QUANTI-Blue based microplate reader; type: cell-based
T1 sequence (Q86WV6 whole entry, looked up, change not shown): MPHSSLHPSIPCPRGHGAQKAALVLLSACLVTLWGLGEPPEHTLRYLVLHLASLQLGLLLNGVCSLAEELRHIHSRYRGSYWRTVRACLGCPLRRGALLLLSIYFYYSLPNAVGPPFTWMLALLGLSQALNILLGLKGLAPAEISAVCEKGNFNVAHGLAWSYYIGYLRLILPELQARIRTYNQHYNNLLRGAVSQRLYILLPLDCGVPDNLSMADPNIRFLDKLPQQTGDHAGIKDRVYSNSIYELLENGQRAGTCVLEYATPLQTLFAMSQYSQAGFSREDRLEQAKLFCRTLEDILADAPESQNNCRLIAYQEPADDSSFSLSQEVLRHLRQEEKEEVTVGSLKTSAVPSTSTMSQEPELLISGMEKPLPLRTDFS

[6] = Clearance in mouse at 5 mg/kg, iv by LC-MS/MS analysis; type: ADME, organism-based; settings: in vivo
THP-1 [7] = experiment: Induction of interferon response in STING knock out human THP-1 cells assessed as fold change in stimulation activity at 13 to 25 uM measured after 24 hrs incubation by QUANTI-Luc4 based microplate reader; type: functional, cell-based; settings: dose 13-25 µM
MC-38 [8] = experiment: In vivo antitumor activity against mouse MC-38 cells inoculated in C57BL/6 mouse assessed as complete tumor regression (CR) at 60 mg/kg, po two doses measured for 15 to 20 days relative to total number of mouse; type: functional; settings: time 15-20 day
[9] = Cmax in mouse at 5 mg/kg, iv by LC-MS/MS analysis; type: ADME, organism-based; settings: in vivo
MC-38 [10] = experiment: In vivo antitumor activity against mouse MC-38 cells inoculated in C57BL/6 mouse assessed as complete tumor regression (CR) at 60 mg/kg, po Q3D co-administered with anti-PD1 measured for 15 to 20 days; type: functional; settings: time 15-20 day
THP1-Blue ISG = experiment: Induction of STING phosphorylation in human THP1-Blue ISG cells at 13 to 50 uM measured after 3 hrs by Western blot analysis; type: cell-based; settings: filed as agonist, dose 13-50 µM
MC-38 [11] = experiment: In vivo antitumor activity against mouse MC-38 cells inoculated in C57BL/6 mouse assessed as complete tumor regression (CR) at 60 mg/kg, po Q3D measured for 15 to 20 days; type: functional, organism-based; settings: time 15-20 day
[12] = Oral bioavailability in mouse at 10 mg/kg by LC-MS/MS analysis; type: ADME, organism-based; settings: in vivo
MC-38 [13] = experiment: In vivo antitumor activity against mouse MC-38 cells inoculated in C57BL/6 mouse assessed as increase in CXCL10 level in serum at 60 mg/kg, po Q3D co-administered with anti-PD1 measured for 15 to 20 days; type: functional, organism-based; settings: time 15-20 day
[14] = Half life in mouse at 5 mg/kg, iv by LC-MS/MS analysis; type: ADME, organism-based; settings: in vivo
[15] = Stability of the compound in mouse plasma assessed as half life by LC-MS/MS analysis; type: ADME, cell-free
MC-38 [16] = experiment: In vivo antitumor activity against mouse MC-38 cells inoculated in C57BL/6 mouse assessed as increase in IL-6 level in tumor at 60 mg/kg, po Q3D co-administered with anti-PD1 measured for 15 to 20 days; type: functional, organism-based; settings: time 15-20 day
[17] = AUC in mouse at 5 mg/kg, iv by LC-MS/MS analysis; type: ADME, organism-based; settings: in vivo
MC-38 [18] = experiment: In vivo antitumor activity against mouse MC-38 cells inoculated in C57BL/6 mouse assessed as increase in CXCL10 level in tumor at 60 mg/kg, po Q3D co-administered with anti-PD1 measured for 15 to 20 days; type: functional, organism-based; settings: time 15-20 day
MC-38 [19] = experiment: In vivo antitumor activity against mouse MC-38 cells inoculated in C57BL/6 mouse assessed as as increase in moue survival time at 60 mg/kg, po Q3D measured for 15 to 20 days; type: functional, organism-based; settings: time 15-20 day
[20] = Stability of the compound in human plasma assessed as half life by LC-MS/MS analysis; type: ADME, cell-free
[21] = target: T1, Stimulator of interferon genes protein; experiment: Agonist activity at STING R232 mutant (unknown origin) expressed in human THP1-Dual cells assessed as fold change in stimulation activity measured after 24 hrs incubation by QUANTI-Luc4 based microplate reader; type: cell-based
MC-38 [22] = experiment: In vivo antitumor activity against mouse MC-38 cells inoculated in C57BL/6 mouse assessed as long-term immunological memory by measuring tumor recurrence at 60 mg/kg, po Q3D measured for 15 to 20 days followed by cured rechallenged with MC-38 cells after 84 days of first dose and measured for additional 74 days (total 157 days observation); type: functional, organism-based; settings: time 157.0 day
MC-38 [23] = experiment: In vivo antitumor activity against mouse MC-38 cells inoculated in C57BL/6 mouse assessed as increase in IFN-gamma level in tumor at 60 mg/kg, po Q3D co-administered with anti-PD1 measured for 15 to 20 days; type: functional, organism-based; settings: time 15-20 day
[24] = Cmax in mouse at 10 mg/kg, po by LC-MS/MS analysis; type: ADME, organism-based; settings: in vivo
[25] = target: T2, Interferon regulatory factor 3 (Homo sapiens) (UniProt Q14653); experiment: Induction of IRF3 phosphorylation in human THP1-Blue ISG cells at 13 to 50 uM measured after 3 hrs by Western blot analysis; type: cell-based; settings: filed as agonist, dose 13-50 µM
T2 sequence (whole entry): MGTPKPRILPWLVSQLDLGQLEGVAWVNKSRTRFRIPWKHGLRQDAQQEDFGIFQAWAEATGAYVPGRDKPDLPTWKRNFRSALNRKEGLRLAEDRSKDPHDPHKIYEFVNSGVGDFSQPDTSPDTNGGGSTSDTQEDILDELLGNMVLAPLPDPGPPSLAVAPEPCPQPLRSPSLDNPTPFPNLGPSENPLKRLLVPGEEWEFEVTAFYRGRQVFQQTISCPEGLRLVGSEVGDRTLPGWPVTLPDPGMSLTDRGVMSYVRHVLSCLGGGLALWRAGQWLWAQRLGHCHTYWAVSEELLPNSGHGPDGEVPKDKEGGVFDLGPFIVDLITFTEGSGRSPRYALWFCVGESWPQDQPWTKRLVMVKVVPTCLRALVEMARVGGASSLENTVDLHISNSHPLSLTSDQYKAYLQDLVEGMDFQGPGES

THP-1 [26] = experiment: Induction of interferon secretion in human THP-1 cells assessed as IFN-beta level at 13 uM measured after 24 hrs by ELISA; type: functional, cell-based
[27] = target: T3, Stimulator of interferon genes protein (Mus musculus, UniProt Q3TBT3); experiment: Agonist activity at mouse STING expressed in human THP1-Dual cells assessed as fold change in stimulation activity measured after 24 hrs incubation by QUANTI-Luc4 based microplate reader; type: cell-based
T3 sequence (Q3TBT3 whole entry): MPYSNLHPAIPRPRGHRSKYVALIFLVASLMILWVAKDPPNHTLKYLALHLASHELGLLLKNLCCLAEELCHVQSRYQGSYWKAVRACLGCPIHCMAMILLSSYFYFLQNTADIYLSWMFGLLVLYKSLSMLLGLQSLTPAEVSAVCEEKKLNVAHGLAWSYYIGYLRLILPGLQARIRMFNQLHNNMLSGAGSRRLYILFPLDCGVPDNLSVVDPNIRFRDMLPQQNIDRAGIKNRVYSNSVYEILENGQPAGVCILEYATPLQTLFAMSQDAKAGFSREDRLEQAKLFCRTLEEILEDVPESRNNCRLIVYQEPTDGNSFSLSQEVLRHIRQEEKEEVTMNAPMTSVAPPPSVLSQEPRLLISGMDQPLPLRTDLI

MC-38 [28] = experiment: In vivo antitumor activity against mouse MC-38 cells inoculated in C57BL/6 mouse assessed as increase in moue survival time at 60 mg/kg, po Q3D co-administered with anti-PD1 measured for 15 to 20 days; type: functional, organism-based; settings: time 15-20 day
[29] = Clearance in mouse at 10 mg/kg, po by LC-MS/MS analysis; type: ADME, organism-based; settings: in vivo
MC-38 [30] = experiment: In vivo antitumor activity against mouse MC-38 cells inoculated in C57BL/6 mouse assessed as increase in IL-6 level in serum at 60 mg/kg, po Q3D co-administered with anti-PD1 measured for 15 to 20 days; type: functional, organism-based; settings: time 15-20 day
[31] = AUC in mouse at 10 mg/kg, po by LC-MS/MS analysis; type: ADME, organism-based; settings: in vivo
[32] = Metabolic stability in human liver microsomes assessed as half life at 10 uM measured up to 60 mins by LC-MS/MS analysis; type: ADME, Microsome

**Q.** With `CC[C@H](CNC(=O)c1[se]c2cc(OC)c(OC)cc2c1F)C(=O)O` as the compound, how does the Activity (MC-38 [1]) read?
**A.** Active

**Q.** And the half-life [2]?
**A.** 1.1 h

**Q.** And the half-life at 10 µM [3]?
**A.** > 1 h

**Q.** And the half-life [4]?
**A.** 0.8 h

**Q.** What about the EC50 [5] of the same compound?
**A.** 3.3 µM

**Q.** What about the clearance [6] of the same compound?
**A.** 4.04 mL/min/kg

**Q.** And the Activity (THP-1 [7])?
**A.** inactive

**Q.** And the Activity (MC-38 [8])?
**A.** 60%

**Q.** What about the Cmax [9] of the same compound?
**A.** 48400 ng/mL

**Q.** What about the Activity (MC-38 [10]) of the same compound?
**A.** Active; Compound Effect Significantly Exceeded Than Its Parent Compound Zsa-52 (Cr = 60%)

**Q.** What about the Activity (THP1-Blue ISG) of the same compound?
**A.** Active

**Q.** What about the Activity (MC-38 [11]) of the same compound?
**A.** Active

**Q.** And the bioavailability [12]?
**A.** 58%

**Q.** And the Activity (MC-38 [13])?
**A.** Active

**Q.** What about the half-life [14] of the same compound?
**A.** 0.6 h

**Q.** And the half-life [15]?
**A.** > 1 h

**Q.** And the Activity (MC-38 [16])?
**A.** Active

**Q.** And the AUC [17]?
**A.** 20600 ng·h/mL

**Q.** And the Activity (MC-38 [18])?
**A.** Active

**Q.** What about the Activity (MC-38 [19]) of the same compound?
**A.** Active

**Q.** And the half-life [20]?
**A.** > 1 h

**Q.** And the EC50 [21]?
**A.** 9 µM

**Q.** What about the Activity (MC-38 [22]) of the same compound?
**A.** Active

**Q.** And the Activity (MC-38 [23])?
**A.** Active

**Q.** And the Cmax [24]?
**A.** 20600 ng/mL

**Q.** What about the Activity [25] of the same compound?
**A.** Active

**Q.** And the Activity (THP-1 [26])?
**A.** Active

**Q.** And the EC50 [27]?
**A.** 9.3 µM

**Q.** What about the Activity (MC-38 [28]) of the same compound?
**A.** Active

**Q.** And the CL/F [29]?
**A.** 6.94 mL/min/kg

**Q.** And the Activity (MC-38 [30])?
**A.** Active

**Q.** And the AUC [31]?
**A.** 23800 ng·h/mL

**Q.** And the half-life at 10 µM [32]?
**A.** > 1 h

— ChEMBL document CHEMBL6178018, “Design of an Oral STING Agonist through Intramolecular Hydrogen Bond Ring Mimicking to Achieve Complete Tumor Regression” (J Med Chem, 2025)
